Experimental data: patent publication US12492181B2, “Gem-disubstituted piperidine melanocortin subtype-2 receptor (MC2R) antagonists and uses thereof” (Crinetics Pharmaceuticals, Inc., priority 2019, dated 2025)

Molecular target: T1, hMC2 receptor (crude hMC2R membranes from CRE-bla-CHO-K1 cells stably expressing hMC2 receptor and hMRAP accessory protein) (Homo sapiens, UniProt Q01718)
T1 construct: crude membrane fractions
Assay: hMC2 membrane binding assay ([125I]ACTH (1-39) Tyr23, SPA)
Details: displacement of 0.2 nM [125I]ACTH (1-39) Tyr23 from hMC2R membranes, 1.5 hours at room temperature; read-out: MC2R binding potency
Summary of the method: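 Ki values come from non-linear regression of SPA scintillation counts, with compounds displacing [125I]ACTH(1-39) Tyr23. Membranes come from CRE-bla-CHO-K1 cells stably expressing hMC2 receptor together with hMRAP. They are preincubated with WGA-coated PVT SPA beads in 50 mM HEPES pH 7.4 with 0.20% BSA, Mg2+, Ca2+ and protease inhibitors.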

T1 sequence (Q01718 whole entry): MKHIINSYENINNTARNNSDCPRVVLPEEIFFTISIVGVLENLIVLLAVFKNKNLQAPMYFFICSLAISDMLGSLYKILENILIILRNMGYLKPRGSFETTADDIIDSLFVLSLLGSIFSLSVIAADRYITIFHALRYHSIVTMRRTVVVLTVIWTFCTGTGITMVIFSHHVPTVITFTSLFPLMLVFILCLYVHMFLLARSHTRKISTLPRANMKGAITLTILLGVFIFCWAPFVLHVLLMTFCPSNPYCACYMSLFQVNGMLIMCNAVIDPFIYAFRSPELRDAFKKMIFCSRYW
T1 sequence (Q8TCY5 whole entry partner): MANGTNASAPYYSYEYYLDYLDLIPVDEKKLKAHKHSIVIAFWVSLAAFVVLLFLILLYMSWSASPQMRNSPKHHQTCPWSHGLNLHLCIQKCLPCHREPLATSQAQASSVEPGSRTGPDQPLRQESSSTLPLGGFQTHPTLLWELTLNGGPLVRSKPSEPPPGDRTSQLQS

| Ki | Compound |
| --- | --- |
| < 10 nM | CCc1ncccc1-c1ccc(C2(C(=O)N[C@@H]3CCN(C)C3)CCN(c3ccc(C(F)(F)F)cc3C#N)CC2)cn1 [Compound 1-118, 1-[2-cyano-4-(trifluoromethyl)phenyl]-4-{2′-ethyl-[2,3′-bipyridin]-5-yl}-N-[(3R)-1-methylpyrrolidin-3-yl]piperidine-4-carboxamide] |
| < 10 nM | CCOc1ccccc1-c1ccc(C2(C(=O)N[C@@H]3CCN(C)C3)CCN(c3ccc(C(F)(F)F)cc3C#N)CC2)cn1 [Compound 1-31, 1-[2-cyano-4-(trifluoromethyl)phenyl]-4-[6-(2-ethoxyphenyl)pyridin-3-yl]-N-[(3R)-1-methylpyrrolidin-3-yl]piperidine-4-carboxamide] |
| < 10 nM | COc1ccccc1-c1ncc(C2(C(=O)N[C@H]3CCN(C)C3)CCN(c3ccc(C(F)(F)F)cc3C#N)CC2)cc1F [Compound 1-127, 1-[2-cyano-4-(trifluoromethyl)phenyl]-4-[5-fluoro-6-(2-methoxyphenyl)pyridin-3-yl]-N-[(3S)-1-methylpyrrolidin-3-yl]piperidine-4-carboxamide] |
| < 10 nM | CN1CC[C@@H](NC(=O)C2(c3ccc(-c4cccc(F)c4F)nc3)CCN(c3ccc(C(F)(F)F)cc3C#N)CC2)C1 [Compound 1-61, 1-[2-cyano-4-(trifluoromethyl)phenyl]-4-[6-(2,3-difluorophenyl)pyridin-3-yl]-N-[(3R)-1-methylpyrrolidin-3-yl]piperidine-4-carboxamide] |
| 10 to 100 nM | COc1cccnc1-c1ccc(C2(C(=O)N[C@H]3CCN(C)C3)CCN(c3ccc(C(F)(F)F)cc3C#N)CC2)cn1 [Compound 1-178, 1-[2-cyano-4-(trifluoromethyl)phenyl]-4-{3′-methoxy-[2,2′-bipyridin]-5-yl}-N-[(3S)-1-methylpyrrolidin-3-yl]piperidine-4-carboxamide] |
| 10 to 100 nM | CN1CC[C@@H](NC(=O)C2(c3ccc(-c4ccccc4C(C)(F)F)nc3)CCN(c3ccc(C(F)(F)F)cc3C#N)CC2)C1 [Compound 1-84, 1-[2-cyano-4-(trifluoromethyl)phenyl]-4-{6-[2-(1,1-difluoroethyl)phenyl]pyridin-3-yl}-N-[(3R)-1-methylpyrrolidin-3-yl]piperidine-4-carboxamide] |
| 10 to 100 nM | CN1CC[C@H](NC(=O)C2(c3ccc(-c4cccc(F)c4C#N)nc3)CCN(c3ccc(C(F)(F)F)cc3C#N)CC2)C1 [Compound 1-148, 4-[6-(2-cyano-3-fluorophenyl)pyridin-3-yl]-1-[2-cyano-4-(trifluoromethyl)phenyl]-N-[(3S)-1-methylpyrrolidin-3-yl]piperidine-4-carboxamide] |
| < 10 nM | Cc1sccc1-c1ccc(C2(C(=O)N[C@H]3CCN(C)C3)CCN(c3ccc(C(F)(F)F)cc3C#N)CC2)cn1 [Compound 1-122, 1-[2-cyano-4-(trifluoromethyl)phenyl]-N-[(3S)-1-methylpyrrolidin-3-yl]-4-[6-(2-methylthiophen-3-yl)pyridin-3-yl]piperidine-4-carboxamide] |

The remaining lines, values behind:

| Compound | Ki |
| --- | --- |
| CCOc1ccccc1-c1ccc(C2(NC(=O)CCN(C)C)CCN(c3ccc(Cl)cc3C#N)CC2)cn1 [Compound 2-30, N-[1-(4-chloro-2-cyanophenyl)-4-[6-(2-ethoxyphenyl)pyridin-3-yl]piperidin-4-yl]-3-(dimethylamino)propanamide] | < 10 nM |
| CCOc1ccccc1-c1ncc(C2(C(=O)N[C@H]3CCN(C)C3)CCN(c3ccc(C(F)(F)F)nc3C#N)CC2)cc1F [Compound 1-125, 1-[2-cyano-6-(trifluoromethyl)pyridin-3-yl]-4-[6-(2-ethoxyphenyl)-5-fluoropyridin-3-yl]-N-[(3S)-1-methylpyrrolidin-3-yl]piperidine-4-carboxamide] | < 10 nM |
| CCOc1ncccc1-c1ncc(C2(C(=O)N[C@@H](C)CN(C)C)CCN(c3ccc(C(F)(F)F)cc3C#N)CC2)cc1F [Compound 1-319, 1-[2-cyano-4-(trifluoromethyl)phenyl]-N-[(2S)-1-(dimethylamino)propan-2-yl]-4-{2′-ethoxy-3-fluoro-[2,3′-bipyridin]-5-yl}piperidine-4-carboxamide] | < 10 nM |
| CCOc1ncccc1-c1cnc(C2(C(=O)N[C@H]3CCN(C)C3)CCN(c3ccc(C(F)(F)F)cc3C#N)CC2)cn1 [Compound 1-58, 1-[2-cyano-4-(trifluoromethyl)phenyl]-4-[5-(2-ethoxypyridin-3-yl)pyrazin-2-yl]-N-[(3S)-1-methylpyrrolidin-3-yl]piperidine-4-carboxamide] | < 10 nM |
| Cn1cccc1-c1ccc(C2(C(=O)N[C@H]3C[C@H](N)C3)CCN(c3ccc(C(F)(F)F)cc3C#N)CC2)cn1 [Compound 1-234, 1-[2-cyano-4-(trifluoromethyl)phenyl]-4-[6-(1-methyl-1H-pyrrol-2-yl)pyridin-3-yl]-N-[(1R,3R)-3-aminocyclobutyl]piperidine-4-carboxamide] | 10 to 100 nM |
| CCOc1ncccc1-c1ccc(C2(NC(=O)CCN)CCN(c3ccc(C(F)(F)F)cc3C#N)CC2)cn1 [Compound 2-4, 3-amino-N-{1-[2-cyano-4-(trifluoromethyl)phenyl]-4-{2′-ethoxy-[2,3′-bipyridin]-5-yl}piperidin-4-yl}propanamide] | < 10 nM |
| COc1ccccc1-c1ccc(C2(NC(=O)[C@@H]3CCN(C)C3)CCN(c3ccc(C(F)(F)F)cc3C#N)CC2)cn1 [Compound 2-60, (3R)—N-{1-[2-cyano-4-(trifluoromethyl)phenyl]-4-[6-(2-methoxyphenyl)pyridin-3-yl]piperidin-4-yl}-1-methylpyrrolidine-3-carboxamide] | < 10 nM |
| CCOc1ncccc1-c1ccc(C2(C(=O)N[C@H]3CCN(C)C3)CCN(c3ncc(C(F)(F)F)cc3Cl)CC2)cn1 [Compound 1-150, 1-[3-chloro-5-(trifluoromethyl)pyridin-2-yl]-4-{2′-ethoxy-[2,3′-bipyridin]-5-yl}-N-[(3S)-1-methylpyrrolidin-3-yl]piperidine-4-carboxamide] | 10 to 100 nM |
| CCOc1ncccc1-c1ncc(C2(C(=O)N[C@H]3CCN(C)C3)CCN(c3ccc(C(F)(F)F)cc3Cl)CC2)cc1F [Compound 1-203, 1-[2-chloro-4-(trifluoromethyl)phenyl]-4-{2′-ethoxy-3-fluoro-[2,3′-bipyridin]-5-yl}-N-[(3S)-1-methylpyrrolidin-3-yl]piperidine-4-carboxamide] | < 10 nM |
| CCOc1ncccc1-c1ccc(C2(C(=O)N[C@@H](C)CNC)CCN(c3ccc(C(F)(F)F)cc3F)CC2)cn1 [Compound 1-321, 4-{2′-ethoxy-[2,3′-bipyridin]-5-yl}-1-[2-fluoro-4-(trifluoromethyl)phenyl]-N-[(2S)-1-(methylamino)propan-2-yl]piperidine-4-carboxamide] | < 10 nM |
| COc1ccccc1-c1ccc(C2(C(=O)N[C@@H]3CNC[C@H]3F)CCN(c3ccc(C(F)(F)F)cc3C#N)CC2)cn1 [Compound 1-238, 1-[2-cyano-4-(trifluoromethyl)phenyl]-N-[(3R,4R)-4-fluoropyrrolidin-3-yl]-4-[6-(2-methoxyphenyl)pyridin-3-yl]piperidine-4-carboxamide] | < 10 nM |
| CN(C)CCNC(=O)C1(c2ccc(-c3cccn3C)nc2)CCN(c2ccc(C(F)(F)F)cc2Cl)CC1 [Compound 1-282, 1-[2-chloro-4-(trifluoromethyl)phenyl]-N-[2-(dimethylamino)ethyl]-4-[6-(1-methyl-1H-pyrrol-2-yl)pyridin-3-yl]piperidine-4-carboxamide] | < 10 nM |
| COc1ccccc1-c1ncc(C2(C(=O)NCCN(C)C)CCN(c3ccc(C(F)(F)F)cc3F)CC2)cc1F [Compound 1-285, N-[2-(dimethylamino)ethyl]-1-[2-fluoro-4-(trifluoromethyl)phenyl]-4-[5-fluoro-6-(2-methoxyphenyl)pyridin-3-yl]piperidine-4-carboxamide] | < 10 nM |
| CN1CC[C@](C)(NC(=O)C2(c3ccc(-c4cccn4C)nc3)CCN(c3ccc(C(F)(F)F)cc3C#N)CC2)C1 [Compound 1-253, 1-[2-cyano-4-(trifluoromethyl)phenyl]-N-[(3S)-1,3-dimethylpyrrolidin-3-yl]-4-[6-(1-methyl-1H-pyrrol-2-yl)pyridin-3-yl]piperidine-4-carboxamide] | < 10 nM |
| CCOc1ccccc1-c1ccc(C2(C(=O)N[C@H]3CCN(C)C3)CCN(c3ccc(Cl)cc3C#N)CC2)cn1 [Compound 1-90, 1-(4-chloro-2-cyanophenyl)-4-[6-(2-ethoxyphenyl)pyridin-3-yl]-N-[(3S)-1-methylpyrrolidin-3-yl]piperidine-4-carboxamide] | < 10 nM |
| CCOc1ncccc1-c1ncc(C2(C(=O)N[C@@H](C)CN(C)C)CCN(c3ccc(Cl)cc3C#N)CC2)cc1F [Compound 1-325, 1-(4-chloro-2-cyanophenyl)-N-[(2S)-1-(dimethylamino)propan-2-yl]-4-{2′-ethoxy-3-fluoro-[2,3′-bipyridin]-5-yl}piperidine-4-carboxamide] | < 10 nM |
| CCOc1ncccc1-c1ccc(C2(C(=O)N[C@@H]3CN4CCC3CC4)CCN(c3ccc(C(F)(F)F)cc3C#N)CC2)cn1 [Compound 1-20, N-[(3S)-1-azabicyclo[2.2.2]octan-3-yl]-1-[2-cyano-4-(trifluoromethyl)phenyl]-4-{2′-ethoxy-[2,3′-bipyridin]-5-yl}piperidine-4-carboxamide] | < 10 nM |
| CN1CC[C@H](NC(=O)C2(c3ccc(-c4cccn4C)nn3)CCN(c3ccc(Cl)cc3C#N)CC2)C1 [Compound 1-170, 1-(4-chloro-2-cyanophenyl)-4-[6-(1-methyl-1H-pyrrol-2-yl)pyridazin-3-yl]-N-[(3S)-1-methylpyrrolidin-3-yl]piperidine-4-carboxamide] | < 10 nM |
| CCOc1ncccc1-c1ccc(C2(C(=O)N[C@H]3CCN(C)C3)CCN(c3ccc(OC(F)(F)F)cc3C#N)CC2)cn1 [Compound 1-39, 1-[2-cyano-4-(trifluoromethoxy)phenyl]-4-{2′-ethoxy-[2,3′-bipyridin]-5-yl}-N-[(3S)-1-methylpyrrolidin-3-yl]piperidine-4-carboxamide] | < 10 nM |
